Results published in patent publication US9133199B2, “Pyrimidine derivatives as protein kinase inhibitors” (Cyclacel Limited, priority 2007, dated 2015).
Structures can show the parent of a compound that is named as a salt. Where two headings read alike, the source gives them in different places. Values belong to the compound of their own block, whether it stands above or below them.

Columns and labels:
[1] = Nephelometry kinetic solubility; format: physicochemical
Description: If a DMSO solution of a water soluble compound is introduced into aqueous buffer, the mixture remains clear unless the aqueous solubility limit is reached. Above the solubility limit, precipitation occurs and light travelling through the turbid suspension is scattered. The measurement of the intensity of the scattered light is the basis of nephelometric solubility determination.
Selected compounds were screened using a nephelometer to identify the concentration at which turbidity occurs, thereby giving an indication of kinetic solubility. By nephelometry (2% DMSO: 98% phosphate buffered saline pH 7.5) compound [254] was freely soluble at 200 μM (>0.11 mg/mL) which is the highest concentration tested in this assay. In contrast, in the same nephelometry assay, the maximum soluble concentration of prior art Example [I-253] of WO 07/095,188 was determined to be 75 μM (Table 6).

[2] = test system: A2780/ADR cells; experiment: Cell viability assay (Alamar Blue, 72 hours), MDR line; format: cell-based, human; settings: paired parental and MDR tumour cell lines (A2780-A2780/ADR, MES-SA-MES-SA/Dx5)
Description: In vitro cell viability assays have been used to measure the effect of drug accumulation in paired parental and drug resistant tumour cell lines. The pairs used are the human ovarian carcinoma A2780 line with its MDR counterpart A2780/ADR and the human uterine sarcoma MES-SA line with its MDR counterpart MES-SA/Dx5 [Wesolowska O., et al. (2005) Anticancer Res., 25, 383-389].
Method: Cultivated human tumour cells of the ovarian cell line A2780 and its doxorubicin-resistant pair, A2780/ADR and the uterine cell line MES-SA and its doxorubicin-resistant pair, MES-SA/DX5 were seeded at 3000 cells per well in Nunc 96-well tissue culture plates, 100 μl per well in DMEM media containing 10% foetal calf serum and penicillin/streptomycin. […] The plates were then read at 544/595 nm.
The amount of Alamar Blue reagent reacted represents the metabolic activity of the cells. […] The values were calculated from the average of three individual measurements with blank correction (medium-only control).
The assay was performed on the Biomek FxP, automation platform from Beckman Coulter. The plates were read on the Paradigm plate reader supplied by Beckman Coulter. Asymmetry ratios were calculated as the IC50 value of the compound in the drug resistant cells divided by the IC50 value in the parental cells. […]

[3] = Pharmacokinetics in fasted conscious CD-1 mice (iv and oral); format: in vivo; settings: compared to compounds A-G; for systemic exposure (AUC of plasma concentration vs time): iv 1 mg/kg and oral 5-10 mg/kg
Method: Preliminary investigations of the pharmacokinetics of selected compounds were carried out in fasted conscious CD-1 mice (25-30 g). Compounds were dosed as 1 mg/kg by intravenous administration or 5-10 mg/kg by oral route. Twenty one male mice per administration route (n=3 mice per time point) received dose solution by single bolus injection in the tail vein or by oral gavage. Blood samples were collected by cardiac puncture at 5, 15, 30, 60, 120, 240 and 360 min following iv administration and at 30, 60, 120, 240, 360, 480 and 1440 min following oral administration. Blood samples were collected into tubes containing the anti-coagulant lithium heparin, mixed and placed promptly on crushed ice. Plasma was derived from whole blood by centrifugation, frozen and stored at −80° C. prior to analysis. Plasma concentrations were determined by liquid chromatography-tandem mass spectrometry in electrospray positive mode (ESI LC/MS/MS) using calibration curves prepared in the appropriate matrix. The lower level of quantification (LLOQ) in all cases was ca. 5 ng/mL. Plasma concentration-time data was processed using the computer program WinNonLin version 5.2 from which areas under the plasma concentration-time curve (AUCall) were calculated by non-compartmental analysis using Model 201 (IV-bolus Input) or Model 200 (Extravascular Input).
FIG. 1 plots the area under the curve (AUC) for plasma concentration vs time for each compound tested. The dosing vehicle across these experiments remained constant (intravenous=citrate buffer pH 3, 1 mL/kg; oral=DMA/PEG400/10 mM Tartrate buffer, pH 4 (1:3:6), 5 ml/kg). FIG. 2 represents the same data in the form of oral bioavailability (% F) for each compound.

[4] = molecular target: AA (aurora kinase A) (Homo sapiens (Human), UniProt O14965); experiment: AA kinase inhibition (Table 1); format: biochemical; settings: Table 2; read-out: AurA IC50
Chain of AA (aurora kinase A) (O14965 whole entry, species assumed): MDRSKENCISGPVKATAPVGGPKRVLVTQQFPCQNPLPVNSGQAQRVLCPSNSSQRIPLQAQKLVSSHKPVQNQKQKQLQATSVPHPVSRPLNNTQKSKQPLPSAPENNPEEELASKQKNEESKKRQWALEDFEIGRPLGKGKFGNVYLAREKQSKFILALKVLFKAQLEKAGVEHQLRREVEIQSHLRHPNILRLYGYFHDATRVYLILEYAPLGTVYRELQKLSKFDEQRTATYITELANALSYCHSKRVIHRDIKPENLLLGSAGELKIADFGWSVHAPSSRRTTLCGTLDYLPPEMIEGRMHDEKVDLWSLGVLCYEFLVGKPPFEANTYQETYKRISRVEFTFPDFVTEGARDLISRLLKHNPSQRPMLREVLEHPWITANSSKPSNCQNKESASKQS

[5] = phosphate buffered saline with 2% DMSO, pH 7.5, aqueous buffer, kinetic from dmso stock, 2% DMSO: 98% phosphate buffered saline pH 7.5, highest concentration tested 200 μM, read-out: Nephelometry maximum soluble concentration

SMILES: COc1cc(C(=O)N[C@H]2CC[C@H](N3CCN(CC4CC4)CC3)CC2)ccc1Nc1ncc2c(n1)N(C1CCCC1)CC(C)(C)C(=O)N2C [Compound 372, 4-(9-cyclopentyl-5,7,7-trimethyl-6-oxo-6,7,8,9-tetrahydro-5H-pyrimido[4,5-b][1,4]diazepin-2-ylamino)-N-((trans)-4-(4-(cyclopropylmethyl)piperazin-1-yl)cyclohexyl)-3-methoxybenzamide]
- cellular efflux (MDR/parental cell asymmetry) [2]: low cellular efflux

SMILES: COc1cc(C(=O)N[C@H]2CC[C@H](N3CCN(CC4CC4)CC3)CC2)ccc1Nc1ncc2c(n1)N(C1CCCC1)CCC(=O)N2C [Compound 378, 4-(9-cyclopentyl-5-methyl-6-oxo-6,7,8,9-tetrahydro-5H-pyrimido[4,5-b][1,4]diazepin-2-ylamino)-N-((trans)-4-(4-(cyclopropylmethyl)piperazin-1-yl)cyclohexyl)-3-methoxybenzamide]
- oral bioavailability (% F) [3]: markedly superior
- systemic exposure (AUC of plasma concentration vs time) [3]: markedly superior

SMILES: CN1C(=O)CCN2CCC(=O)Nc3cccc(c3)Nc3ncc1c2n3 [Compound 282]
- IC50 [4]: < 10 µM

SMILES: CN1C(=O)CCN(C2CCCC2)c2nc(Nc3cccc4cc[nH]c34)ncc21 [Compound 98, 9-Cyclopentyl-2-(1H-indol-7-ylamino)-5-methyl-5,7,8,9-tetra-hydro-pyrimido[4,5-b] [1,4]diazepin-6-one]
- IC50 [4]: < 1 µM

The next lines start with results.

- solubility [1, 5]: 75 µM
SMILES: COc1cc(C(=O)NN2CCCC2)ccc1Nc1ncc2c(n1)N(C1CCCC1)CC1(CC1)C(=O)N2C [Example [I-253] of WO 07/095188, reference compound]

- oral bioavailability (% F) [3]: markedly superior
- systemic exposure (AUC of plasma concentration vs time) [3]: markedly superior
SMILES: COc1cc(C(=O)N[C@H]2CC[C@H](N3CCN(CC4CC4)CC3)CC2)ccc1Nc1ncc2c(n1)N(C1CCCC1)CC1(CC1)C(=O)N2C [Compound 371, 4-(9′-cyclopentyl-5′-methyl-6′-oxo-5′,6′,8′,9′-tetrahydrospiro[cyclopropane-1,7′-pyrimido[4,5-b][1,4]diazepine]-2′-ylamino)-N-((trans)-4-(4-(cyclopropylmethyl)piperazin-1-yl)cyclohexyl)-3-methoxybenzamide]
- cellular efflux (MDR/parental cell asymmetry) [2]: low cellular efflux

- solubility [1, 5]: ≥ 200 µM
- solubility ([1]; phosphate buffered saline with 2% DMSO, pH 7.5, aqueous buffer, kinetic from dmso stock, 2% DMSO: 98% phosphate buffered saline pH 7.5, read-out: Nephelometry soluble concentration): > 110 µg/mL
SMILES: COc1cc(C(=O)NN2CCN(C)CC2)ccc1Nc1ncc2c(n1)N(C1CCCC1)CC1(CC1)C(=O)N2C [Compound 254, 4-(9′-cyclopentyl-5′-methyl-6′-oxo-5′,6′,8′,9′-tetrahydrospiro[cyclopropane-1,7′-pyrimido[4,5-b][1,4]diazepine]-2′-ylamino)-3-methoxy-N-(4-methylpiperazin-1-yl)benzamide]

- solubility ([1]; pH 7.5, read-out: Nephelometry maximum soluble concentration): >200 µM
SMILES: COc1cc(C(=O)NN2CCN(C)CC2)ccc1Nc1ncc2c(n1)N(C1CCCC1)CC1(CC1)C(=O)N2C [[254]•HCl, 4-(9′-cyclopentyl-5′-methyl-6′-oxo-5′,6′,8′,9′-tetrahydrospiro[cyclopropane-1,7′-pyrimido[4,5-b][1,4]diazepine]-2′-ylamino)-3-methoxy-N-(4-methylpiperazin-1-yl)benzamide•HCl]
